Data from the supplement of paper PMC10307832.

Experiments:
Assay in all cases: relative viability (nuclei count vs DMSO), 5 days (fraction); higher = more cells survive
GSK126 + Vorinostat = compound: CC[C@H](C)N1C=C(C2=C(C=C(C=C21)C3=CN=C(C=C3)N4CCNCC4)C(=O)NCC5=C(C=C(NC5=O)C)C)C [GSK126] + O=C(CCCCCCC(=O)Nc1ccccc1)NO [Vorinostat] (partner 1 µM)
Outline: (§1)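 A single step with final 0.05% Triton X-100, 1% formaldehyde and 1 ug/ml Hoechst fixed the cells and stained nuclei 5 days after treatment. Lung cancer cell lines in 1536-well plates had been treated by pin tool the day after seeding with one drug alone or a fixed anchor-drug dose plus five library-drug doses (not always all listed) in √10 steps, and nuclei were counted on 4× images. Relative viability is the ratio of nuclei in treated wells to nuclei in vehicle wells, taken as the median of duplicate plates.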

Carboplatin + Olaparib = compound: C1CC(C1)(C(=O)O)C(=O)O.[NH2-].[NH2-].[Pt+2] [Carboplatin] + O=C(c1cc(Cc2n[nH]c(=O)c3ccccc23)ccc1F)N1CCN(C(=O)C2CC2)CC1 [Olaparib] (partner 8 µM)
Outline: as §1

Carboplatin + Vorinostat = compound: C1CC(C1)(C(=O)O)C(=O)O.[NH2-].[NH2-].[Pt+2] [Carboplatin] + O=C(CCCCCCC(=O)Nc1ccccc1)NO [Vorinostat] (partner 1 µM)
Outline: as §1

Carboplatin + AZD7762 = compound: C1CC(C1)(C(=O)O)C(=O)O.[NH2-].[NH2-].[Pt+2] [Carboplatin] + NC(=O)Nc1cc(-c2cccc(F)c2)sc1C(=O)N[C@H]1CCCNC1 [AZD7762] (partner 0.2 µM)
Outline: as §1

| Cell Line | relative viability (GSK126 + Vorinostat; first compound 0.08 µM) | relative viability (GSK126 + Vorinostat; first compound 0.253 µM) | relative viability (GSK126 + Vorinostat; first compound 0.8 µM) | relative viability (GSK126 + Vorinostat; first compound 2.53 µM) | relative viability (GSK126 + Vorinostat; first compound 8 µM) | relative viability (Carboplatin + Olaparib; first compound 0.08 µM) | relative viability (Carboplatin + Olaparib; first compound 0.253 µM) | relative viability (Carboplatin + Olaparib; first compound 0.8 µM) | relative viability (Carboplatin + Olaparib; first compound 2.53 µM) | relative viability (Carboplatin + Olaparib; first compound 8 µM) | relative viability (Carboplatin + Vorinostat; first compound 0.08 µM) | relative viability (Carboplatin + Vorinostat; first compound 0.253 µM) | relative viability (Carboplatin + Vorinostat; first compound 0.8 µM) | relative viability (Carboplatin + Vorinostat; first compound 2.53 µM) | relative viability (Carboplatin + Vorinostat; first compound 8 µM) | relative viability (Carboplatin + AZD7762; first compound 0.08 µM) | relative viability (Carboplatin + AZD7762; first compound 0.253 µM) | relative viability (Carboplatin + AZD7762; first compound 0.8 µM) | relative viability (Carboplatin + AZD7762; first compound 2.53 µM) | relative viability (Carboplatin + AZD7762; first compound 8 µM) |
| --- | --- | --- | --- | --- | --- | --- | --- | --- | --- | --- | --- | --- | --- | --- | --- | --- | --- | --- | --- | --- |
| NCI-H838 | 0.747 | 0.688 | 0.659 | 0.638 | 0.69 | 0.773 | 0.746 | 0.757 | 0.683 | 0.575 | 0.733 | 0.705 | 0.728 | 0.626 | 0.608 | 1.09 | 0.957 | 0.837 | 0.869 | 0.758 |
| HCC-78 | 0.429 | 0.402 | 0.413 | 0.437 | 0.452 | 0.888 | 0.851 | 0.574 | 0.684 | 0.726 | 0.472 | 0.403 | 0.386 | 0.378 | 0.431 | 0.744 | 0.712 | 0.656 | 0.693 | 0.644 |
| NCI-H522 | 0.888 | 0.887 | 0.954 | 1.04 | 0.92 | 0.586 | 0.663 | 0.618 | 0.679 | 0.607 | 0.882 | 0.904 | 0.944 | 0.968 | 0.669 | 0.783 | 0.74 | 0.876 | 0.908 | 0.728 |
| ChaGo-K-1 | 0.767 | 0.736 | 0.747 | 0.825 | 0.763 | 0.43 | 0.409 | 0.376 | 0.332 | 0.362 | 0.752 | 0.704 | 0.649 | 0.577 | 0.4 | 0.935 | 0.866 | 0.891 | 0.817 | 0.639 |
| EPLC-272H | 0.346 | 0.342 | 0.344 | 0.29 | 0.511 | 0.857 | 0.777 | 0.798 | 0.73 | 0.527 | 0.559 | 0.377 | 0.569 | 0.337 | 0.293 | 0.308 | 0.218 | 0.309 | 0.208 | 0.208 |
| LCLC-97TM1 | 0.771 | 0.8 | 0.717 | 0.812 | 0.691 | 0.334 | 0.524 | 0.353 | 0.506 | 0.332 | 0.753 | 0.749 | 0.661 | 0.504 | 0.654 | 0.221 | 0.336 | 0.367 | 0.163 | 0.228 |
